Measured values published in PubChem BioAssay (NCI).
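Step 1: Grow cells in 96-well plates. Step 2: Expose to compound for 48 hours at 5 concentrations. Step 3: Interpolate endpoints linearly; if unreached, use highest concentration. Definition used: TGI = concentration required for complete inhibition of growth.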

Legend:
Experiment in all cases: NCI tumour cell line growth inhibition, 48 h
[1] = system: K-562 leukemia
[2] = system: HCC-2998 colon
[3] = system: SNB-75 CNS
[4] = system: M14 melanoma
[5] = system: NCI-H23 lung
[6] = system: 786-0 renal
[7] = system: COLO 205 colon
[8] = system: NCI/ADR-RES ovarian
[9] = system: SN12C renal
[10] = system: HOP-62 NSCLC
[11] = system: KM12 colon
[12] = system: MDA-MB-435
[13] = system: BT-549 breast
[14] = system: SK-MEL-5 melanoma
[15] = system: DU-145 prostate
[16] = system: HS 578T breast
[17] = system: OVCAR-4 ovarian
[18] = system: HT29 colon
[19] = system: CAKI-1 renal
[20] = system: UACC-62 melanoma
[21] = system: SK-MEL-28 melanoma
[22] = system: SW-620 colon
[23] = system: IGROV1 ovarian
[24] = system: CCRF-CEM leukemia
[25] = system: MCF7 breast
[26] = system: SF-539 CNS
[27] = system: PC-3 prostate
[28] = system: HCT-116 colon
[29] = system: RXF 393 renal
[30] = system: SNB-19 CNS
[31] = system: MDA-N
[32] = system: U251 CNS
[33] = system: OVCAR-5 ovarian
[34] = system: HL-60(TB) leukemia
[35] = system: MOLT-4 leukemia
[36] = system: LOX IMVI melanoma
[37] = system: SF-268 CNS
[38] = system: RPMI-8226 leukemia
[39] = system: EKVX NSCLC
[40] = system: OVCAR-3 ovarian
[41] = system: SK-OV-3 ovarian
[42] = system: T-47D breast
[43] = system: A549 NSCLC
[44] = system: SF-295 CNS
[45] = system: HCT-15 colon
[46] = system: A498 renal
[47] = system: SK-MEL-2 melanoma
[48] = system: MDA-MB-231 breast
[49] = system: OVCAR-8 ovarian
[50] = system: ACHN renal
[51] = system: MALME-3M melanoma
[52] = system: TK-10 renal
[53] = system: UACC-257 melanoma
[54] = system: NCI-H522 lung
[55] = system: HOP-92 NSCLC
[56] = system: SR leukemia
[57] = system: NCI-H226 lung
[58] = system: UO-31 renal

With CC(C)CCCC(C)[C@H]1CC[C@H]2[C@@H]3CC[C@H]4C[C@@H](CCC=C(c5cc(Cl)c(O)c(C(=O)OC(C)(C)C)c5)c5cc(Cl)c(O)c(C(=O)OC(C)(C)C)c5)CC[C@]4(C)[C@H]3CC[C@]12C (stereo partly drawn) the TGI [1] was > 50 µM, the TGI [2] was > 50 µM and the TGI [3] was > 50 µM. The TGI [4] was > 50 µM, the TGI [5] was > 50 µM and the TGI [6] was > 50 µM. The TGI [7] was > 50 µM, the TGI [8] was > 50 µM and the TGI [9] was > 50 µM. For the same compound, the TGI [10] was > 50 µM, the TGI [11] was > 50 µM and the TGI [12] was > 50 µM. The TGI [13] was > 50 µM, the TGI [14] was > 50 µM and the TGI [15] was > 50 µM. For the same compound, the TGI [16] was > 50 µM, the TGI [17] was > 50 µM and the TGI [18] was > 50 µM. The TGI [19] was > 50 µM, the TGI [20] was > 50 µM and the TGI [21] was > 50 µM. The TGI [22] was > 50 µM, the TGI [23] was > 50 µM and the TGI [24] was > 50 µM. The TGI [25] was > 50 µM, the TGI [26] was > 50 µM and the TGI [27] was > 50 µM. For the same compound, the TGI [28] was > 50 µM, the TGI [29] was > 50 µM and the TGI [30] was > 50 µM. The TGI [31] was > 50 µM, the TGI [32] was > 50 µM and the TGI [33] was > 50 µM. The TGI [34] was > 50 µM, the TGI [35] was > 50 µM and the TGI [36] was > 50 µM. For the same compound, the TGI [37] was > 50 µM, the TGI [38] was > 50 µM and the TGI [39] was > 50 µM. For the same compound, the TGI [40] was > 50 µM, the TGI [41] was > 50 µM and the TGI [42] was > 50 µM. For the same compound, the TGI [43] was > 50 µM, the TGI [44] was > 50 µM and the TGI [45] was > 50 µM. The TGI [46] was > 50 µM, the TGI [47] was > 50 µM and the TGI [48] was > 50 µM.

With CC(C)(C)c1cc(-c2ccc(-c3cc(C(C)(C)C)c(O)c(C(C)(C)C)c3)cc2)cc(C(C)(C)C)c1O the TGI [49] was > 100 µM, the TGI [1] was > 100 µM and the TGI [3] was > 100 µM. For the same compound, the TGI [4] was > 100 µM, the TGI [50] was > 100 µM and the TGI [5] was > 100 µM. The TGI [6] was > 100 µM, the TGI [7] was > 100 µM and the TGI [8] was > 100 µM. The TGI [9] was > 100 µM, the TGI [10] was > 100 µM and the TGI [51] was > 100 µM. The TGI [52] was > 100 µM, the TGI [11] was > 100 µM and the TGI [12] was > 100 µM. For the same compound, the TGI [13] was > 100 µM, the TGI [14] was > 100 µM and the TGI [15] was > 100 µM. For the same compound, the TGI [17] was > 100 µM, the TGI [18] was > 100 µM and the TGI [19] was > 100 µM. For the same compound, the TGI [20] was > 100 µM, the TGI [21] was > 100 µM and the TGI [22] was > 100 µM. The TGI [53] was > 100 µM, the TGI [23] was > 100 µM and the TGI [25] was > 100 µM. For the same compound, the TGI [26] was > 100 µM, the TGI [27] was > 100 µM and the TGI [28] was > 100 µM. The TGI [29] was > 100 µM, the TGI [30] was > 100 µM and the TGI [54] was > 100 µM. For the same compound, the TGI [31] was > 100 µM, the TGI [32] was > 100 µM and the TGI [33] was > 100 µM. The TGI [34] was > 100 µM, the TGI [35] was > 100 µM and the TGI [36] was > 100 µM. For the same compound, the TGI [55] was > 100 µM, the TGI [37] was > 100 µM and the TGI [38] was > 100 µM. The TGI [39] was > 100 µM, the TGI [56] was > 100 µM and the TGI [40] was > 100 µM. For the same compound, the TGI [41] was > 100 µM, the TGI [42] was > 100 µM and the TGI [43] was > 100 µM. The TGI [57] was > 100 µM, the TGI [58] was > 100 µM and the TGI [44] was > 100 µM. For the same compound, the TGI [45] was > 100 µM, the TGI [46] was > 100 µM and the TGI [47] was > 100 µM. For the same compound, the TGI [48] was > 100 µM.
